This passage reports IC50 results from US6235787A, “Hydrazine derivatives” (Hoffmann-La Roche Inc., priority 1997, dated 2001).

Format in all cases: cell-based
For assay [1], the system named is TNF-α release (THP1 cells). The assay can be described thus: Test A: Inhibition of TNF-α Release (LPS-stimulated THP1 cells, ELISA). Conditions: Homo sapiens, THP-1, LPS-induced TNF-α release, 3 hours, 37° C., read-out: Test A IC50 (nMol). Here is the method:
Test A: Inhibition of TNF-α Release
THP1 cells were cultivated in RPMI 1640 medium supplemented with antibiotics and 10% foetal calf serum, harvested by centrifugation and diluted to 5×10^5 cells/ml in the above medium supplemented with 20 mM HEPES buffer. Aliquots ([…]) of the cell suspension were plated out on 96 well culture plates and incubated for 0.5 hour at 37° C. prior to the addition of the test compounds. The latter were dissolved in dimethyl sulphoxide (DMSO) to a stock concentration of 1.2 mM which was diluted with phosphate buffered saline/10% DMSO solution to provide test compounds in final concentrations of 10^-9 to 10^-5 M, with each concentration being tested in duplicate. The cells were incubated with the test compounds for 0.5 hour at 37° C., LPS (bacterial lipopolysaccharide) was then added to a concentration of […] and incubation was continued for 3 hours at 37° C. in an atmosphere containing 5% CO2 and at 95% relative humidity. After centrifugation at 260 g for 10 minutes an aliquot of each supernatant was removed and the amount of TNF-a was estimated by ELISA (R & D Systems Europe Ltd., Abingdon, England). The concentration of test compound which brings about 50% inhibition of LPS-induced TNF-a release (IC50) was computed from the dose-response curve.

For assay [2], the system named is TGF-α release (Normal human epidermal keratinocytes). The assay can be described thus: Test B: Inhibition of TGF-α Release (TPA-stimulated NHEK). As to conditions: 24 hours, 37° C., read-out: Test B IC50 (nMol). The procedure:
Test B: Inhibition of TGF-α Release
This test is an adaptation of the method described by R. J. Coffrey, R. Derynk, J. N. Wilcox, T. S. Bringman, A. S. Goustin, H. L. Moses and M. R. Pittelkow, Nature, (1987), 328, 816-820. Normal human epidermal keratinocytes (NHEK) (neonatal and adult) were supplied by Clonetics Corporation, San Diego, Calif., USA and at the third passage were plated out on 96 well culture plates at 2×10^3 to 10^4 cells per well and grown in a humidified incubator having a 5% CO2 atmosphere at 37° C. for 5 days in serum-free keratocyte growth medium (KGM; Clonetics Corporation). Test compounds were dissolved in DMSO and then diluted 10 times in keratinocyte basal medium (KBM; Clonetics Corporation). Serial dilutions of the test compounds were made in 10% DMSO in KBM to provide concentrations 12 times higher than the final assay concentration. The test compound dilutions (or vehicle only as controls) were added to the cells and incubation was then carried out at 37° C. for 0.5 hour. TGF-a release was then stimulated by the addition of 10 ng/ml TPA (phorbol 12-myristate 13-acetate). […]

Assay [3] relates to Normal human epidermal keratinocytes (NHEK). The assay can be described thus: Test C: Inhibition of Keratinocyte Proliferation (3H-thymidine incorporation). As to conditions: 3 days, read-out: Test C IC50 (nMol). Here is the method: Test C: Inhibition of Keratinocyte Proliferation
This test is an adaptation the methods described by T. Karashima, H. Hachisuka and Y. Sasai, J. Dermatol. Sci., (1996), 12, 246-254 and A. Olaniran, B. S. Baker, J. J. Garioch, A. V. Powles and L. Fry, Arch. Dermatol. Res., (1995), 287, 231-236. Normal human epidermal keratinocytes (NHEK) (neonatal and adult) were plated out on 96 well culture plates at 2×10^3 cells per well. Following attachment of the cells to the plate by incubation for 24 hours in a humidified incubator having a 5% CO2 atmosphere at 37° C. in serum-free KGM (see above), the medium was replaced with KBM (see above) for 4 days in order to arrest the growth of the cells. Test compounds were dissolved in DMSO and then diluted 10 times in KBM. Serial dilutions of the test compounds were made in 10% DMSO in KBM to provide concentrations 11 times higher than the final assay concentration. The cells were then returned to KGM and the test compound dilutions (or vehicle only for controls) were added immediately. After incubation for 3 days the cells were pulsed with […] ^3 H-thymidine, specific activity 5 Ci/mmol (Amersham International plc, Little Chalfont, Buckinghamshire, UK), for the last 16 hours. Cells were then detached using trypsin-EDTA and harvested. ^3 H-Thymidine incorporation as a measure of proliferation was determined by scintillation counting techniques. […]

Take `CC(C)C[C@@H](C(=O)NN(Cc1ccccc1)S(C)(=O)=O)[C@H](C/C=C/c1ccccc1)C(=O)NO` [C, (E)-2'-Benzyl-2(R)-[1(S)-(hydroxycarbamoyl)-4-phenyl-3-butenyl]-2'-(methanesulphonyl)-4-methylvalerohydrazide]: the IC50 in assay [1] was found to be 365 nM. For the molecule `CC(C)C[C@@H](C(=O)NN(c1ccccc1)S(C)(=O)=O)[C@H](C/C=C/c1ccccc1)C(=O)NO` [Compound A, (E)-2(R)-[1(S)-(Hydroxycarbamoyl)-4-phenyl-3-butenyl]-2'-(methanesulphonyl)-4-methyl-2'-phenylvalerohydrazide], the IC50 in assay [1] was determined as 437 nM; in assay [2] it was 210 nM; in assay [3] it was 1300 nM.

`COc1ccc(N(NC(=O)[C@H](CC(C)C)[C@H](C/C=C/c2ccccc2)C(=O)NO)S(C)(=O)=O)cc1` [Compound B, 1(E)-2(R)-[1(S)-(Hydroxycarbamoyl)-4-phenyl-3-butenyl]-2'-(methanesulphonyl)-2'-(4-methoxyphenyl)-4-methylvalerohydrazide]: the IC50 came to 515 nM in assay [1], 255 nM in assay [2] and 1100 nM in assay [3]. Take `COC(=O)N(CC(C)C)NC(=O)[C@H](CC(C)C)[C@H](C/C=C/c1ccccc1)C(=O)NO` [Compound I, Methyl (E)-3-[2(R)-[1(S)-(hydroxycarbamoyl)-4-phenyl-3-butenyl]-4-methylvaleryl]-2-isobutylcarbazate]: in assay [1], the IC50 is 881 nM. `CC(C)C[C@@H](C(=O)NN(CC1CCCCC1)S(C)(=O)=O)[C@H](C/C=C/c1ccccc1)C(=O)NO` [D, (E)-2'-(Cyclohexylmethyl)-2(R)-[1(S)-(hydroxycarbamoyl)-4-phenyl-3-butenyl]-2'-(methanesulphonyl)-4-methylvalerohydrazide]: in assay [1], the half-inhibitory concentration (IC50) came out at 408 nM. The same measure, in the same setting: as for `CC(C)C[C@@H](C(=O)NN(CC(C)C)S(C)(=O)=O)[C@H](C/C=C/c1ccccc1)C(=O)NO` [E, (E)-2(R)-[1(S)-(Hydroxycarbamoyl)-4-phenyl-3-butenyl]-2'-isobutyl-2'-(methanesulphonyl)-4-methylvalerohydrazide], the figure is 531 nM; as for `CC(C)C[C@@H](C(=O)NN1C(=O)CCCC1=O)[C@H](C/C=C/c1ccccc1)C(=O)NO` [F, (E)-2(R)-[(1S)-(Hydroxycarbamoyl)-4-phenyl-3-butenyl]-4-methyl-N-(2,6-dioxopiperidino)valeramide], 1520 nM. Same read-out and setting: as for `CC[C@H](C)CN(NC(=O)[C@H](CC(C)C)[C@H](C/C=C/c1ccccc1)C(=O)NO)S(C)(=O)=O` [G, (E)-2(R)-[1(S)-(hydroxycarbamoyl)-4-phenyl-3-butenyl]-2'-(methanesulphonyl)-4-methyl-2'-[2(S)-methylbutyl]valerohydrazide], the figure is 428 nM; as for `C=C(C)CN(NC(=O)[C@H](CC(C)C)[C@H](C/C=C/c1ccccc1)C(=O)NO)S(C)(=O)=O` [H], 381 nM; as for `CC(C)CC(=O)N(CC(C)C)NC(=O)[C@H](CC(C)C)[C@H](C/C=C/c1ccccc1)C(=O)NO` [J, (E)-2(R)-[(S)-(Hydroxycarbamoyl)-4-phenyl-3-butenyl]-2'-(isobutyl)-2'-(isopentanoyl)-4-methylvalerohydrazide], 933 nM.
